The source of these data is BindingDB's records for PubMed 35653695 (Ecole Polytechnique F?d?rale de Lausanne …, 2022).

Broadly, the Ki is a measure of affinity in units of concentration, obtained from inhibition or displacement.

This experiment is described as follows: Inhibition of mouse KLK5 assessed as inhibition constant using Boc-VPR-AMC as fluorogenic substrate incubated for 30 mins by fluorescence plate reader assay.

`CCCCCCCCCCCCCCCC(=O)NCCCC[C@H](NC(=O)[C@H](CCC(=O)O)NC(=O)[C@H](Cc1ccc(O)cc1)NC(=O)[C@H](CCC(=O)O)NC(=O)COCCOCCNC(=O)c1ccc(-c2c3ccc(=O)cc-3oc3cc(O)ccc23)c(C(=O)O)c1)C(=O)N[C@@H](CCC(=O)O)C(=O)N[C@@H](Cc1ccc(O)cc1)C(=O)N[C@@H](CCC(=O)O)C(=O)NCCOCCOCC(=O)NCCCC[C@H](NC(=O)CNC(=O)[C@@H]1CSCC(=O)CSC[C@H](NC(=O)CN)C(=O)N[C@@H]([C@@H](C)O)C(=O)N[C@@H](CCCNC(=N)N)C(=O)N[C@@H](CCC(N)=O)C(=O)N[C@@H](Cc2ccc(O)cc2)C(=O)N2CCC[C@H]2C(=O)N1)C(=O)NCC(N)=O`: the Ki turned out to be 1.4 nM.
